Measurements taken from patent US20240091191A1, “USES OF CORYLIN AND/OR NEOBAVAISOFLAVONE IN TREATING SYMPTOMS ASSOCIATED WITH SENESCENCE” (Chang Gung University, priority 2022, published 2024).

Key:
HaCaT cells [1] = assay: UVB-induced apoptosis analysis (crystal violet); format: cell-based; settings: 5 μM corylin or 20 μM neobavaisoflavone 4 hours, UVB 14 mJ/m^2 four runs
Experimental: HaCaT cells were seeded into a 12-well plate (7×10^4 cells/well), and incubated with 5 μM corylin or 20 μM neobavaisoflavone, or without drugs, for 4 hours, before subjected to UVB irradiation at 14 mJ/m^2 for four runs. At 24 hours, the irradiated cells were collected, washed, and fixed with 4% paraformaldehyde, before being immersed in 0.5% crystal violet solution for 15 minutes at room temperature. The cells were washed, air-dried, photographed, and immersed in 50% ethanol containing 0.1% glacial acetic acid to remove the crystal violet dye. The absorbance at 550 nm was read by a microplate reader.

HaCaT cells [2] = assay: UVB-induced DNA breakage analysis; format: cell-based; settings: 100 μM pretreatment 24 hours, UVB 30 mJ/m^2
Experimental: HaCaT cells were seeded into a 12-well plate (7×10^4 cells/well), and incubated with 100 μM corylin or 100 μM neobavaisoflavone, or without drugs, for 24 hours, before subjected to UVB irradiation at 30 mJ/m^2. The irradiated cells were collected, washed, and mixed with 1% agarose gel solution 140 μl at 35° C., before being applied onto slides. The slides were placed at 4° C. for 1 hour for solidifying the gel, immersed in a lysis buffer for at least 1 hour and subsequently in an electrophoresis fluid for 40 minutes, and then subjected to gel-electrophoresis at 25 V for 20 minutes. The slides were immersed in a neutralizing solution for 5 minutes, mounted with 30 μl mounting medium with DAPI, and observed under a fluorescence microscope. The results were analyzed with the software OPEN COMET to quantify the breakage and the repair of the DNA in the cells.

HUVECs [3] = assay: Senescence-associated (SA)-β-gal staining of HUVECs; format: cell-based, human; settings: late stage HUVECs (PDL9), vs control without corylin
Experimental: HUVECs at 90% confluency were collected, washed, and fixed with 2% formaldehyde and 0.2% glutaraldehyde for 5 minutes. The cells were then subjected to staining by incubation with a staining solution (40 mmol/l citric acid, sodium phosphate, pH 6.0, 1 mg/ml 5-bromo-4-chloro-3-isolyl-β-D-galactoside (X-gal, Sigma), 5 mmol/l potassium ferrocyanide, 5 mmol/l potassium ferricyanide, 150 mmol/l NaCl, and 2 mmol/l MgCl2) at 37° C. for 18 hours. The results of SA-β-gal-positive cells were observed by microscopy, and were counted for over 300 cells in at least three independent fields.

[4] = Pharmacokinetic analysis, serum level after corylin oral gavage; format: in vivo, mouse; settings: mice
Experimental: The blood samples of the C57BL/6J male mice (n=4) were collected at 1, 3, 6, 9, 12 and 15 h after corylin oral gavage, and the serum samples were then separated therefrom. Each serum sample (100 μl) was mixed with ice-cold acetonitrile (150 μl) at 4° C. for 1 hour, and then centrifuged at 15,000×g and 4° C. for 15 min. After centrifugation, the supernatant (150 μl) was harvested, and 150 μl ddH2O was added. The resulting mixture was analyzed by a LC/FTMS system.

[5] = Body weight and food intake of aged HFD-fed mice; format: in vivo, mouse; settings: entire course of the experiment
Experimental: (§1) All animal procedures were complied with relevant regulations and were conducted under approved protocols (Protocol #CGU15-150) by Research Guidelines for the Care and Use of Laboratory Animals, Chang Guan University. C57BL/6J male mice (34 weeks of age) were maintained at 23±1° C. and at humidity of 45-65% with a 12 h dark/light cycle. After reaching 40 weeks of age, the mice were randomly divided into two groups: Group I (HFD), fed a HFD with 54% fat (n=30), and Group II (HFD/C), fed a HFD containing corylin (1 g corylin/1 kg HFD) (or the dose of corylin was 50 mg/kg) (n=30).
(§2) The ability of corylin to delay the aging process in mice was examined in the present example. To this purpose, aged C57BL/6J mice (forty-week-old) were fed with a HFD or a HFD plus 0.1% (w/w) corylin (HFD/C) ad libitum for the rest of their lives.

HaCaT cells [6] = assay: Intracellular NAD+ content; format: cell-based; settings: 5 μM corylin or 20 μM neobavaisoflavone, 24 hours
Experimental: HaCaT cells were seeded into a 6-cm dish (4×10^5 cells/dish), and incubated with 5 μM corylin or 20 μM neobavaisoflavone, or without drugs, for 24 hours, before being harvested. The harvested cells were extracted with 250 μl of 1 M glacial formic acid saturated with butanol, incubated for 30 minutes on ice. Then, 62.5 μl of 100% TCA (w/v) was added to each sample, and the samples were incubated on ice for an additional 15 minutes. The samples were pelleted by centrifugation at 14,000×g for 5 minutes, and the supernatant was transferred to another eppendorf tube. The pellets were then washed with 125 μl of 20% TCA, and centrifuged, and the supernatant was combined with the aforementioned supernatant. The combined supernatants were used for the following tests. […] After incubation at 30° C. for 20 minutes, the absorbance of each sample was measured at 340 nm. The NAD^+ level of the cells in each supernatant sample was determined by the test sample (the alcohol ADH catalytic group) relative to the corresponding control sample (the water group, as the basal NADH level).

HUVECs [7] = assay: Population doubling level (PDL) of HUVECs; format: cell-based, human
Experimental: HUVECs were cultured in M199 medium supplemented with 4-(2-hydroxyethyl)-1-piperazineethanesulfonic acid (HEPES), endothelial cell growth supplement (ECGS; Millipore), heparin, NaHCO3, L-glutamine, sodium pyruvate, and 20% fetal bovine serum (FBS; final concentration). HaCaT cells were cultured in DMEM supplemented with 10% FBS and 2 mM glutamine. The cells were grown in an atmosphere of 5% CO2 at 37° C., and passaged to maintain under 90% confluency. The cells were propagated until senescence, and those in every passage were collected for further analysis, numbers of which were determined when sub-cultured.

aged C57BL/6J mice = assay: Survival of aged mice fed HFD with or without corylin; format: in vivo, mouse; settings: corylin supplement 0.1% (w/w) in HFD
Experimental: as §1, §2

p21 = assay: Western blot of p21 expression in HUVECs; format: cell-based, human; settings: late stage HUVECs (PDL9)
Experimental: HUVECs were cultured in M199 medium supplemented with 4-(2-hydroxyethyl)-1-piperazineethanesulfonic acid (HEPES), endothelial cell growth supplement (ECGS; Millipore), heparin, NaHCO3, L-glutamine, sodium pyruvate, and 20% fetal bovine serum (FBS; final concentration). HaCaT cells were cultured in DMEM supplemented with 10% FBS and 2 mM glutamine. The cells were grown in an atmosphere of 5% CO2 at 37° C., and passaged to maintain under 90% confluency. The cells were propagated until senescence, and those in every passage were collected for further analysis, numbers of which were determined when sub-cultured. Population doublings (PDs) were estimated following the equation: PDL=3.32 (log(total viable cells at harvest/total viable cells at seeding). The cells were harvested and lysed in RIPA lysis buffer containing 1% of Triton X-100 and a protease inhibitor cocktail, and total protein concentrations were measured with a protein assay kit. Proteins in the samples of the lysates with the same amounts of total protein were separated by sodium dodecyl sulfate polyacrylamide gel electrophoresis (SDS-PAGE) (10% polyacrylamide gels) and analyzed by immunoblotting. Primary antibodies against p21 and β-actin were applied to detect the corresponding proteins. […] Protein quantification was performed by software.

SMILES | survival rate of the cell under UVB irradiation (HaCaT cells [1]) | UVB-induced DNA breakage (HaCaT cells [2]) | number of SA-β-gal-positive senescent cells (HUVECs [3]) | concentration at 1 h ([4]; male, C57BL/6J, mouse, serum, 1 hour after oral gavage) [nM] | concentration at 3 h ([4]; male, C57BL/6J, mouse, serum, 3 hours after oral gavage) [nM] | concentration at 6 h ([4]; male, C57BL/6J, mouse, serum, 6 hours after oral gavage) [nM] | concentration at 9 h ([4]; male, C57BL/6J, mouse, serum, 9 hours after oral gavage) [nM] | concentration at 12 h ([4]; male, C57BL/6J, mouse, serum, 12 hours after oral gavage) [nM] | concentration at 15 h ([4]; male, C57BL/6J, mouse, serum, 15 hours after oral gavage) [nM] | concentration at 12 h ([4]; 1 hour after oral gavage) [nM] | concentration at 12 h ([4]; 15 hours after oral gavage) [nM] | trajectory of body weight vs HFD group [5] | trajectory of food intake vs HFD group [5] | intracellular NAD+ level (HaCaT cells [6]) | population doubling level (PDL) of HUVECs (HUVECs [7]) | lifespan of aged mice fed on high fat diet (aged C57BL/6J mice) | expression level of p21 (p21)
CC1(C)C=Cc2cc(-c3coc4cc(O)ccc4c3=O)ccc2O1 [corylin] | significantly increased | completely suppressed | decrease | 680 | 500 | 490 | 540 | 390 | 260 | 680 | 260 | did not diverge | did not diverge | elevate | increase | significantly increased | decreased
CC(C)=CCc1cc(-c2coc3cc(O)ccc3c2=O)ccc1O [neobavaisoflavone] | significantly increased | completely suppressed |  |  |  |  |  |  |  |  |  |  |  | elevate |  |  | 
